Test [1] relates to epidermis of hairless mice. The experiment in a line: epidermis thickening in hairless mice, percutaneous administration. To be noted: single percutaneous dose, compared with active vitamin D3. Type of test: in vivo. The text has this:
(§1) The effect of ED-71 administered percutaneously and orally was investigated using hairless mice.
(§2) Percutaneous administration of a vitamin D3 derivative in hairless mice was reported to cause hyperplasia of the epidermis (British Journal of Dermatology 1995; 132; 841-852).

For test [2], the system named is epidermis of hairless mice. As to the kind of experiment: epidermis thickening in hairless mice, oral administration. To be noted: administered orally for 4 days, compared with active vitamin D3. The format is in vivo.
Excerpt: as §1, §2

The test system of test [3] is adult-human-derived keratinocytes. The experiment in a line: suppression of proliferation of cultured human keratinocytes ([3H]thymidine uptake). Type of test: cell-based. To be noted: for IC50: [3H]thymidine uptake, cultured 3 days + 1 day, percentage of control, read-out: IC50 (mol/L) value, suppression of human keratinocyte proliferation. As for the experimental part: The effect of suppressing the proliferation of cultured human keratinocytes by 2β-(3-hydroxypropyloxy)-1α,25-dihydroxyvitamin D3 (hereinafter referred to as “ED-71”) was investigated.
KGM-2 culture medium was added to each well of a 96-well plate (COSTAR 3595), and adult-human-derived keratinocytes (Clonetics) were seeded at a cell count of 1×10^3/well. Then, active vitamin D3 (1α,25-dihydroxyvitamin D3, produced by Solvay Pharmaceuticals) or ED-71 (produced by Chugai Seiyaku) was added to each well in a final concentration of 1×10^−10 mol/L, 1×10^−9 mol/L, 1×10^−8 mol/L, or 1×10^−7 mol/L. The cells were cultured in the KGM-2 culture medium at a cell concentration of 1×10^3/200 μl/well for 3 days at 37° C. in an atmosphere of 5% CO2 and 95% air. [^3H]thymidine was added in an amount of 7.4 kBq/well, and the cells were further cultured for 1 day. The culture medium was removed, and the cells were stripped off using 0.05% trypsin/EDTA (GIBCO BRL), and the amount of [^3H]thymidine taken up by the cells was measured with a liquid scintillation counter (1450 MICROBETA, Wallac). The cells cultured and treated in the same manner as described above, except for the addition of the active vitamin D3 or ED-71, were used as a control.
In FIG. 1, the [^3H]thymidine uptake into the cells treated with each drug is expressed as a percentage of the [^3H]thymidine uptake into the control cells.

These results are taken from patent publication US20050256092A1, “Antipsoriatic agent” (priority 2002, published 2005).

Like-named read-outs stand apart in the source and are kept apart here. A value given as a limit tells only on which side of the number the result lay.

As to `C=C1/C(=C\C=C2/CCC[C@@]3(C)C2CC[C@@H]3[C@H](C)CCCC(C)(C)O)C[C@@H](O)[C@@H](OCCCO)[C@@H]1O` (stereo partly drawn) [ED-71, 2β-(3-hydroxypropyloxy)-1α,25-dihydroxyvitamin D3], the “thickening of the epidermis” value in test [1] and in test [2] was “thickened the epidermis in a lower dose than the dose of active vitamin D3” in each case. The “human keratinocyte proliferation suppressing activity, relative value with respect to active vitamin D3” value in test [3] ((IC50 value of active vitamin D3)/(IC50 value of ED-71)) is no less than 305.23. Moreover, in test [3] (Homo sapiens, Keratinocyte), the IC50 is less than 0.1 nM.

As to `C=C1/C(=C\C=C2/CCC[C@]3(C)[C@@H]([C@H](C)CCCC(C)(C)O)CC[C@@H]23)C[C@@H](O)C[C@@H]1O` [active vitamin D3, 1α,25-dihydroxyvitamin D3, reference compound], the IC50 in test [3] turned out to be 30.5 nM.
